Laboratory results taken from ChEMBL document CHEMBL3877279, “Design, synthesis, in-silico and biological evaluation of novel donepezil derivatives as multi-target-directed ligands for the treatment of Alzheimer's disease” (Eur J Med Chem, 2017).
Calls of active or inactive are those of the source. No cut-off for these calls is given here.

What was measured:
[1] = molecular target: Acetylcholinesterase (Electrophorus electricus, UniProt O42275); assay: Inhibition of Electric eel AChE using acetylthiocholine iodide as substrate preincubated for 5 mins followed by substrate addition measured after 2 mins by Ellman's method
[2] = molecular target: Cholinesterase (Equus caballus, UniProt P81908); assay: Inhibition of equine serum BuChE using butyrylthiocholine iodide as substrate preincubated for 5 mins followed by substrate addition measured after 2 mins by Ellman's method; type: ADME
[3] = Selectivity index, ratio of IC50 for equine serum BuChE to IC50 for Electric eel AChE
[4] = molecular target: Acetylcholinesterase (Electrophorus electricus) (UniProt O42275); assay: Mixed-type inhibition of Electric eel AChE at 10 to 40 nM using varying levels of acetylthiocholine iodide as substrate preincubated for 15 mins followed by substrate addition by Lineweaver-Burk plot analysis
[5] = molecular target: T1, Amyloid-beta precursor protein (Homo sapiens, UniProt P05067); assay: Inhibition of HFIP-pretreated amyloid beta (1 to 42) (unknown origin) self-induced aggregation at 25 uM after 48 hrs by thioflavin-T fluorescence assay relative to control
[6] = molecular target: T1, Amyloid-beta precursor protein; assay: Inhibition of HFIP-pretreated amyloid beta (1 to 42) (unknown origin) self-induced aggregation after 48 hrs by thioflavin-T fluorescence assay
[7] = molecular target: T1, Amyloid-beta precursor protein; assay: Inhibition of amyloid beta (1 to 42) (unknown origin) fibril formation at 25 uM after 48 hrs by uranyl acetate staining based transmission electron microscopic method
[8] = Antioxidant activity assessed as trolox equivalent of AAPH radical scavenging activity at 1 to 25 uM preincubated for 15 mins followed by AAPH addition measured every min for 80 mins by ORAC-FL assay; type: functional
[9] = Cytotoxicity against human SH-SY5Y cells assessed as reduction in cell viability after 48 hrs by MTT assay; type: toxicity, cell-based
[10] = Cytotoxicity against human SH-SY5Y cells assessed as cell viability at 1 uM after 48 hrs by MTT assay relative to control; type: toxicity, cell-based; conditions: read-out: Activity
[11] = Cytotoxicity against human SH-SY5Y cells assessed as cell viability at 5 uM after 48 hrs by MTT assay relative to control; type: toxicity, cell-based; conditions: read-out: Activity
[12] = Cytotoxicity against human SH-SY5Y cells assessed as cell viability at 10 uM after 48 hrs by MTT assay relative to control; type: toxicity, cell-based; conditions: read-out: Activity
[13] = Cytotoxicity against human SH-SY5Y cells assessed as cell viability at 25 uM after 48 hrs by MTT assay relative to control; type: toxicity, cell-based; conditions: read-out: Activity
[14] = Cytotoxicity against human SH-SY5Y cells assessed as cell viability at 50 uM after 48 hrs by MTT assay relative to control; type: toxicity, cell-based; conditions: read-out: Activity
[15] = Cytotoxicity against human SH-SY5Y cells assessed as cell viability at 75 uM after 48 hrs by MTT assay relative to control; type: toxicity, cell-based; conditions: read-out: Activity
[16] = Cytotoxicity against human SH-SY5Y cells assessed as cell viability at 100 uM after 48 hrs by MTT assay relative to control; type: toxicity, cell-based; conditions: read-out: Activity
[17] = test system: SH-SY5Y; assay: Neuroprotective activity against H2O2-induced oxidative stress in human SH-SY5Y cells assessed as inhibition of ROS accumulation at 10 to 20 uM after 24 hrs by DCFH-DA probe based fluorescence assay; type: functional, cell-based
[18] = test system: SH-SY5Y; assay: Neuroprotective activity against H2O2-induced oxidative stress in human SH-SY5Y cells assessed as increase in cell viability at 20 uM after 24 hrs by MTT assay; type: functional, cell-based
[19] = test system: SH-SY5Y; assay: Neuroprotective activity against H2O2-induced morphological changes in human SH-SY5Y cells assessed as decrease in cell rounding at 20 uM after 24 hrs by phase contrast microscopic method; type: functional, cell-based
[20] = test system: SH-SY5Y; assay: Neuroprotective activity against H2O2-induced morphological changes in human SH-SY5Y cells assessed as decrease in cell vacuolation at 20 uM after 24 hrs by phase contrast microscopic method; type: functional, cell-based
[21] = test system: SH-SY5Y; assay: Neuroprotective activity against H2O2-induced morphological changes in human SH-SY5Y cells assessed as decrease in floated appearance at 20 uM after 24 hrs by phase contrast microscopic method; type: functional, cell-based
[22] = test system: SH-SY5Y; assay: Neuroprotective activity against amyloid beta (1 to 42)-induced neurodegeneration in human SH-SY5Y cells assessed as increase in cell viability at 10 uM after 48 hrs by MTT assay; type: functional, cell-based
[23] = test system: SH-SY5Y; assay: Neuroprotective activity against amyloid beta (1 to 42)-induced morphological changes in human SH-SY5Y cells assessed as decrease in shrinked cell body at 20 uM after 48 hrs by phase contrast microscopic method; type: functional, cell-based
[24] = test system: SH-SY5Y; assay: Neuroprotective activity against amyloid beta (1 to 42)-induced morphological changes in human SH-SY5Y cells assessed as decrease in fading synapses at 20 uM after 48 hrs by phase contrast microscopic method; type: functional, cell-based
[25] = test system: SH-SY5Y; assay: Neuroprotective activity against amyloid beta (1 to 42)-induced morphological changes in human SH-SY5Y cells assessed as decrease in loss of adherence at 20 uM after 48 hrs by phase contrast microscopic method; type: functional, cell-based
[26] = test system: SH-SY5Y; assay: Neuroprotective activity against amyloid beta (1 to 42)-induced morphological changes in human SH-SY5Y cells assessed as decrease in fragmented or rounded floating cells at 20 uM after 48 hrs by phase contrast microscopic method; type: functional, cell-based
[27] = molecular target: T1, Amyloid-beta precursor protein; assay: Potency index, ratio of curcumin IC50 to compound IC50 for HFIP-pretreated amyloid beta (1 to 42) (unknown origin) self-induced aggregation
[28] = test system: SH-SY5Y; assay: Neuroprotective activity against H2O2-induced oxidative stress in human SH-SY5Y cells assessed as increase in cell viability at 5 to 20 uM after 24 hrs by MTT assay; type: functional, cell-based
[29] = test system: SH-SY5Y; assay: Neuroprotective activity against amyloid beta (1 to 42)-induced neurodegeneration in human SH-SY5Y cells assessed as increase in cell viability at 20 uM after 48 hrs by MTT assay; type: functional, cell-based
[30] = molecular target: T1, Amyloid-beta precursor protein; assay: Potency index, ratio of compound effect to curcumin effect for inhibition of HFIP-pretreated amyloid beta (1 to 42) (unknown origin) self-induced aggregation at 25 uM

Sequence of Cholinesterase (P81908 whole entry): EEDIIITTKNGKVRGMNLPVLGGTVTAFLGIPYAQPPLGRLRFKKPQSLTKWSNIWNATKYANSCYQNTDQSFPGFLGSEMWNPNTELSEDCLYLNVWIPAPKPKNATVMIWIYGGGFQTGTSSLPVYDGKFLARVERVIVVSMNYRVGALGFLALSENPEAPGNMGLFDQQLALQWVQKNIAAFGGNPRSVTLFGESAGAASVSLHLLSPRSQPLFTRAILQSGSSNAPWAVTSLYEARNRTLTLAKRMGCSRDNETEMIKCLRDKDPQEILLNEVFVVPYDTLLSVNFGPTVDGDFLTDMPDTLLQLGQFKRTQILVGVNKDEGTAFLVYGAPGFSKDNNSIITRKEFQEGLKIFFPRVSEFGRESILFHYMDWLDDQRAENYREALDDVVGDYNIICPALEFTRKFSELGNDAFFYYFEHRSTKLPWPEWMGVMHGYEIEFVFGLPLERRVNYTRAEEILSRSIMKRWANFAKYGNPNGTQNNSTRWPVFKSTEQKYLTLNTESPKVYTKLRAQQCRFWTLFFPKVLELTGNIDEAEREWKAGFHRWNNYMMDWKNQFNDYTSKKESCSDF
T1 sequence (P05067 whole entry): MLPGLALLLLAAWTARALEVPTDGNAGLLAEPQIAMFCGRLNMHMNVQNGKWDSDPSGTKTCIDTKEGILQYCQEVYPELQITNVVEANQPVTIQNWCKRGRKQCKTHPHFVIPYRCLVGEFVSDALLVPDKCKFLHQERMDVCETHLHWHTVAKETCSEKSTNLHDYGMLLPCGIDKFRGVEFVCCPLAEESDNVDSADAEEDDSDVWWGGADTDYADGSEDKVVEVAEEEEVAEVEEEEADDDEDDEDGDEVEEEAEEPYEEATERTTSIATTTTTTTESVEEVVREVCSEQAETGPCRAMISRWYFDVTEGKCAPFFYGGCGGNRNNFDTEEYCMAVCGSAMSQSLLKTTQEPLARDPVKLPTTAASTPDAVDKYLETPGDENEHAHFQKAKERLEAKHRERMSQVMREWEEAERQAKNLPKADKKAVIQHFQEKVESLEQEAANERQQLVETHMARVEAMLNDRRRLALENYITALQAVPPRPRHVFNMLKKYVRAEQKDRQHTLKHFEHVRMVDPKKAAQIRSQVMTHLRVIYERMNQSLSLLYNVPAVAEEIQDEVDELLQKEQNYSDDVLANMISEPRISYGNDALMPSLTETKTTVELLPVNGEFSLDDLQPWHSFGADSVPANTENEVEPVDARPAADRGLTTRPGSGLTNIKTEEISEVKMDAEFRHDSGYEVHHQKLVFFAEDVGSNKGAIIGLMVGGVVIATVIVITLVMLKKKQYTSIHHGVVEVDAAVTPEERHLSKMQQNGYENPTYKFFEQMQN
Sequence of Acetylcholinesterase (O42275 whole entry): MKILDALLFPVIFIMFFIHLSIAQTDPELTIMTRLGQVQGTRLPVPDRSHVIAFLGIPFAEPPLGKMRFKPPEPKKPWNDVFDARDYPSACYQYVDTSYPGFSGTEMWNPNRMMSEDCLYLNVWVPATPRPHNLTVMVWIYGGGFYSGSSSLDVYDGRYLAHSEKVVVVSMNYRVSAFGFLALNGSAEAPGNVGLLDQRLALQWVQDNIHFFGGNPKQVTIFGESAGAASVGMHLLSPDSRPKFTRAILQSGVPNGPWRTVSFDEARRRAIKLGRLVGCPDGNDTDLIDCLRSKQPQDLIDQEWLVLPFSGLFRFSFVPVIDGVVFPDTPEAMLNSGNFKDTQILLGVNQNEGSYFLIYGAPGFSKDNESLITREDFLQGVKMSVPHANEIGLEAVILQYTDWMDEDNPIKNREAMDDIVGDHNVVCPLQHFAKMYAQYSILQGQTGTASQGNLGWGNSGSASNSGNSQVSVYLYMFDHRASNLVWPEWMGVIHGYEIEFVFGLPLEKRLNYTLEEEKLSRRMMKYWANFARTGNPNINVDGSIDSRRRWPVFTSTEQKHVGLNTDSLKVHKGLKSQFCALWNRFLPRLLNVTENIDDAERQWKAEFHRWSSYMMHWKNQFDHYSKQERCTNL
Sequence of Acetylcholinesterase (Electrophorus electricus) (O42275 24-633 limits assumed): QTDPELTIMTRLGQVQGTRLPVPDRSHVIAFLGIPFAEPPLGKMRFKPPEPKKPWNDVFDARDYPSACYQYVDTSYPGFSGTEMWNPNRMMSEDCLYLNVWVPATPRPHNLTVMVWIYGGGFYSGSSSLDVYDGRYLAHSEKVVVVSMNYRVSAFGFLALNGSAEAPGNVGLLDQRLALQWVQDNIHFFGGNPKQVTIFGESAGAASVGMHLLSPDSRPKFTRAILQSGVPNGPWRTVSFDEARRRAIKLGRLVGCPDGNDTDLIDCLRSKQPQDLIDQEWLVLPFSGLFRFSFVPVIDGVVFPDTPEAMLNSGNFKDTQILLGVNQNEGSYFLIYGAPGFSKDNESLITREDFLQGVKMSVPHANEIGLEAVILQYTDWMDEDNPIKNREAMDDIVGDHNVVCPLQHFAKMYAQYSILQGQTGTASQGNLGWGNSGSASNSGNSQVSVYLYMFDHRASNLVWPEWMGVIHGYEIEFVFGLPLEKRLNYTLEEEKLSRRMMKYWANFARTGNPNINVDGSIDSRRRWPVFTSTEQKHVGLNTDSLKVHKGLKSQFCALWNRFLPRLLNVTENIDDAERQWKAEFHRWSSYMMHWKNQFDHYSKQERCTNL

COc1cc2c(cc1OC)C(=O)/C(=C/c1ccc(N3CCN(c4ncccn4)CC3)cc1)C2
IC50 [1]: 25 nM
IC50 [2]: 2430 nM
Ratio IC50 [3]: 97.3
inhibition [4]: Active
inhibition [5]: 81.6%
IC50 [6]: 9900 nM
inhibition [7]: Active
Activity (umolequiv/umol) [8]: 2.34
Activity [9]: Dose-dependent effect
viability at 48 h, 1 µM [10]: 98.5%
viability at 48 h, 5 µM [11]: 96.1%
viability at 48 h, 10 µM [12]: 94.7%
viability at 48 h, 25 µM [13]: 92.8%
viability at 48 h, 50 µM [14]: 89.3%
viability at 48 h, 75 µM [15]: 85.7%
viability at 48 h, 100 µM [16]: 82.4%
inhibition [17]: Active
Activity [18]: Active
Activity [19]: Active
Activity [20]: Active
Activity [21]: Active
Activity [22]: Active
Activity [23]: Active
Activity [24]: Active
Activity [25]: Active
Activity [26]: Active

COc1cc2c(cc1OC)C(=O)/C(=C/c1ccc(N3CCN(Cc4ccccc4)CC3)cc1)C2
IC50 [1]: 2620 nM
IC50 [2]: 88 nM
Ratio IC50 [3]: 0.03
inhibition [5]: 48.5%
Activity (umolequiv/umol) [8]: 1.69

COc1cc2c(cc1OC)C(=O)/C(=C/c1ccc(N3CCN(Cc4ccc5c(c4)OCO5)CC3)cc1)C2
IC50 [1]: 1860 nM
IC50 [2]: 12200 nM
Ratio IC50 [3]: 6.5
inhibition [5]: 64.5%
Activity (umolequiv/umol) [8]: 3.35

COc1cc2c(cc1OC)C(=O)/C(=C/c1ccc(N3CCN(c4ccccn4)CC3)cc1)C2
IC50 [1]: 105 nM
IC50 [2]: 1740 nM
Ratio IC50 [3]: 16.5
inhibition [5]: 73.3%
Activity (umolequiv/umol) [8]: 2.08

COc1cc2c(cc1OC)C(=O)/C(=C/c1ccc(N3CCN(C(c4ccccc4)c4ccccc4)CC3)cc1)C2
IC50 [1]: 82 nM
IC50 [2]: 4890 nM
Ratio IC50 [3]: 59.6
inhibition [5]: 78.2%
IC50 [6]: 12200 nM
Activity (umolequiv/umol) [8]: 1.41

COc1cc2c(cc1OC)C(=O)/C(=C/c1ccc(N3CCN(c4ccc(C(F)(F)F)cc4)CC3)cc1)C2
IC50 [1]: 153 nM
IC50 [2]: 214 nM
Ratio IC50 [3]: 1.4
inhibition [5]: 64.2%
Activity (umolequiv/umol) [8]: 1.72

COc1cc2c(cc1OC)C(=O)/C(=C/c1ccc(N3CCN(c4ccc(Cl)cc4)CC3)cc1)C2
IC50 [1]: 291 nM
IC50 [2]: 2220 nM
Ratio IC50 [3]: 7.6
inhibition [5]: 59.5%
Activity (umolequiv/umol) [8]: 1.87

COc1cc2c(cc1OC)C(=O)/C(=C/c1ccc(N3CCN(c4ccc(F)cc4)CC3)cc1)C2
IC50 [1]: 528 nM
IC50 [2]: 3240 nM
Ratio IC50 [3]: 6.1
inhibition [5]: 66.8%
Activity (umolequiv/umol) [8]: 1.93

COc1cc(/C=C/C(=O)CC(=O)/C=C/c2ccc(O)c(OC)c2)ccc1O
inhibition [7]: Active

COc1cc2c(cc1OC)C(=O)/C(=C/c1ccc(N3CCN(C(c4ccc(F)cc4)c4ccc(F)cc4)CC3)cc1)C2
IC50 [1]: 45 nM
IC50 [2]: 3010 nM
Ratio IC50 [3]: 67
inhibition [5]: 83.7%
IC50 [6]: 7400 nM
Ratio IC50 [27]: 2.96
inhibition [7]: Active
Activity (umolequiv/umol) [8]: 2.98
Activity [9]: Dose-dependent effect
viability at 48 h, 1 µM [10]: 97.1%
viability at 48 h, 5 µM [11]: 95.4%
viability at 48 h, 10 µM [12]: 95.7%
viability at 48 h, 25 µM [13]: 92.8%
viability at 48 h, 50 µM [14]: 88.6%
viability at 48 h, 75 µM [15]: 84.3%
viability at 48 h, 100 µM [16]: 80.3%
inhibition [17]: Active
Activity [28]: Active
Activity [19]: Active
Activity [20]: Active
Activity [21]: Active
Activity [29]: Active
Activity [23]: Active
Activity [24]: Active
Activity [25]: Active
Activity [26]: Active

COc1cc2c(cc1OC)C(=O)/C(=C/c1ccc(N3CCN(c4ccc(C)cc4)CC3)cc1)C2
IC50 [1]: 194 nM
IC50 [2]: 1850 nM
Ratio IC50 [3]: 9.5
inhibition [5]: 63.5%
Activity (umolequiv/umol) [8]: 1.3

COc1cc2c(cc1OC)C(=O)/C(=C/c1ccc(N3CCN(C(=O)c4ccccc4)CC3)cc1)C2
IC50 [1]: 1700 nM
IC50 [2]: 365 nM
Ratio IC50 [3]: 0.2
inhibition [5]: 61.4%
Activity (umolequiv/umol) [8]: 2.31

COc1ccc(N2CCN(c3ccc(/C=C4\Cc5cc(OC)c(OC)cc5C4=O)cc3)CC2)cc1
IC50 [1]: 119 nM
IC50 [2]: 603 nM
Ratio IC50 [3]: 5.06
inhibition [5]: 70.5%
Ratio [30]: 1.26
Activity (umolequiv/umol) [8]: 3.39

COc1cc2c(cc1OC)C(=O)/C(=C/c1ccc(N3CCN(c4ccc(C)cc4C)CC3)cc1)C2
IC50 [1]: 112 nM
IC50 [2]: 5130 nM
Ratio IC50 [3]: 45.8
inhibition [5]: 65.7%
Activity (umolequiv/umol) [8]: 1.35

COc1cc2c(cc1OC)C(=O)/C(=C/c1ccc(N3CCN(c4ccccc4)CC3)cc1)C2
IC50 [1]: 1310 nM
IC50 [2]: 5980 nM
Ratio IC50 [3]: 4.5
inhibition [5]: 51.1%
Activity (umolequiv/umol) [8]: 0.64
